The text below walks through data of patent publication US20220143183A1, “PHOTOSWITCHABLE PROTACS AND SYNTHESIS AND USES THEREOF” (New York University, priority 2019, published 2022).

In data set [1] the test system is PARP-1. The data set can be described thus: Immunoblot of PARP-1 cleavage in RS4;11 cells. The class given is cell-based, human. To be noted: 1 μM, sustained 390 nm pulse irradiation. How it is done:
FIG. 5 depicts optical control of BRD2-4 levels. A) Immunoblot analysis after treatment of RS4;11 cells with PHOTAC-I-3 for 4 h at different concentrations. Cells were either irradiated with 100 ms pulses of 390 nm light every 10 s (left) or kept in the dark (right). B) Time course of BRD2-4 degradation, c-MYC levels and PARP1 cleavage assayed by immunoblotting. RS4;11 cells were treated with PHOTAC-I-3 (1 μM) and collected at the indicated time points. PHOTAC-I-3 has no effect on BRD2-4 levels in the dark over several hours. […] D) Color-dosing: Wavelength dependence of BRD2/4 degradation promoted by 300 nM PHOTAC-I-3. E) Immunoblot analysis after treatment of RS4;11 cells with PHOTAC-I-3 and combinations with lenalidomide or (+)-JQ1 for 4 h to confirm a cereblon-based mechanism. Cells were either irradiated with 100 ms pulses of 390 nm light every 10 s (left) or kept in the dark (right). F) Optical degradation of BRD4 with the thalidomide derivative PHOTAC-I-10. Immunoblot analysis of RS4;11 cells after treatment with PHOTAC-I-10 for 4 h at different concentrations which were either irradiated with 100 ms pulses of 390 nm light every 10 s (left) or kept in the dark (right). […] The slight effect on c-MYC can be explained by inhibition of BRD4 with the (+)-JQ1 derivative PHOTAC-I-3 in the absence of targeted degradation.

Data set [2] addresses BRD4 (Homo sapiens, UniProt O60885). The data set can be described thus: Immunoblot of BRD4 degradation in MB-MDA-231 cells. In kind it is cell-based. Details: Immunoblot analysis after treatment of MB-MDA-231 cells with PHOTAC-I-3 for 18 h at different concentrations; endogenous in cells; host or cells: MB-MDA-231 (A10) and MB-MDA-468 (A11) (so in the source). To be noted: 18 h, 390 nm pulses vs dark. How it is done:
FIG. 10 depicts an immunoblot analysis of PHOTAC-I-3 A) Immunoblot analysis after treatment of MB-MDA-231 cells with PHOTAC-I-3 for 18 h at different concentrations. Cells were either irradiated with 100 ms pulses of 390 nm light every 10 s (left) or kept the dark (right). B) Immunoblot analysis after treatment of MB-MDA-468 cells with PHOTAC-I-3 for 18 h at different concentrations. Cells were either irradiated with 100 ms pulses of 390 nm light every 10 s (left) or kept the dark (right). (MWM, molecular weight marker). C) Immunoblot of BRD4 degradation in RS4;11 cells, promoted by PHOTAC-I-3 (300 nM) after 1 minute of irradiation (100 ms every 10 s), highlighting sustained degradation at the applied dosage.
Photoactivatable degraders and inhibitors of BRD4, c-MYC levels were also affected.

Data set [3] in a line: UV-Vis photoswitching and photostationary states (PSS). The class given is physicochemical. An excerpt:
The photoswitching and thermal relaxation properties of one of the lead compounds, PHOTAC-I-3, is shown in FIG. 3A-E. The optimal wavelength to switch to the cis isomer is 390 nm but similar photostationary states (PSS) can be obtained between 380 and 400 nm (FIG. 3C). At 390 nm a PSS of >90% cis could be obtained. Rapid cis to trans isomerization could be achieved by irradiation with wavelengths >450 nm, achieving PSS of ca >70% trans (FIG. 3C). […] Multiple cycles of photochemical isomerization are possible, in keeping with the fatigue-resistance of azobenzene photoswitches (FIG. 3E).
UV-Vis spectrometry was performed on a Varian Cary 60 UV-Visible Spectrophotometer using disposable BRAND UV-Cuvette Disposable Spectrophotometer/Photometer Ultra-Micro Cuvettes, BrandTech (10 mm light path), an Agilent Technologies PCB 1500 Water Peltier system for temperature control and samples were irradiated with a cairn research Optoscan Monochromator with Optosource High Intensity Arc Lamp equipped with a 75 W UXL-S50A lamp from USHIO Inc. Japan and set to 15 nm full width at half maximum.

For the compound `COc1cc(/N=N/c2cccc3c2CN(C2CCC(=O)NC2=O)C3=O)cc(OC)c1OCC(=O)NCCCCNC(=O)C[C@@H]1N=C(c2ccc(Cl)cc2)c2c(sc(C)c2C)-n2c(C)nnc21` (stereo partly drawn) [PHOTAC-I-3, 2-((S)-4-(4-chlorophenyl)-2,3,9-trimethyl-6H-thieno[3,2-f][1,2,4]triazolo[4,3-a][1,4]diazepin-6-yl)-N-(4-(2-(4-((E)-(2-(2,6-dioxopiperidin-3-yl)-1-oxoisoindolin-4-yl)diazenyl)-2,6-dimethoxyphenoxy)acetamido)butyl)acetamide], the “PARP-1 cleavage (indicator of apoptosis)” value in data set [1] is given as “increasing cleavage of PARP-1”. For the same compound, in data set [2], the BRD4 degradation result was “light-dependent degradation of BRD4”. Further, the “optimal wavelength to switch to the cis isomer” value in data set [3] came out at 390 nm. For the same compound, the “photostationary state (PSS), cis fraction” value in data set [3] (at 390 nm) is recorded as > 90%. For the same compound, in data set [3] (irradiation with wavelengths >450 nm), the “photostationary state (PSS), trans fraction” value is > 70%.
